# Data: patent publication US8097625B2, “Combination of sedative and a neurotransmitter modulator, and methods for improving sleep quality and treating depression” (priority 2003, dated 2012)
# Key:
# Assay type in all cases: in vivo, human
# [1] = DREAMDD clinical study: tolerability and adverse events; conditions: 8 weeks
# Protocol: Safety was assessed by physical examinations, a standard 12-lead ECG, vital signs, clinical laboratory assessments and AE reporting.
# Adverse Events (AEs): Subjects were queried in a non-leading manner, without specific prompting (e.g., “How are you feeling?”) to assess whether they are suffering from any adverse events.
# Adverse Events: All adverse experiences were coded using the COSTART dictionary (Coding Symbols for a thesaurus of Adverse Event Terms; version 5.0, 1995). Treatment emergent adverse experiences was defined as 1) AEs that occurred or worsened (increased in severity and/or frequency) on or after the first dose of study medication, 2) AEs with a missing start data and a stop date on or after the first dose of study medication, or 3) AEs with both a missing start and stop date. Treatment emergent AEs was summarized by treatment and by COSTART body system and preferred term. AEs that occurred within 14 days after treatment discontinuation was considered treatment-emergent AEs.
# [2] = DREAMDD clinical study: subject disposition; conditions: of 270 randomized; 3 mg nightly + fluoxetine
# Excerpt: Subjects who discontinued early for any reason were replaced.
# Subject Disposition and Drug Exposure: Subject disposition was summarized and presented for the number and percentage of subjects, who were screened, randomized, received treatment, completed the study, and discontinued early (including reasons for discontinuations). For each subject, the number of doses taken was computed from the study drug dispensation and accountability CRF records obtained at each visit, assuming that subjects took their study drug medication evenly throughout the between-visits periods. The extent of exposure to the double-blind medication as well as the number of doses taken during the double-blind treatment period was summarized with descriptive statistics and presented by treatment group.
# [3] = system: subjects with insomnia related to major depressive disorder; assay: DREAMDD clinical study: fluoxetine titration (20 mg to 40 mg at Visit 7); conditions: for Subjects on Fluoxetine Hydrochloride 20 mg / Subjects on Fluoxetine Hydrochloride 40 mg: eszopiclone 3 mg group, ITT
# Protocol: In addition, subjects were randomized at Visit 3 (end of baseline) to treatment with one of the following nightly (at bedtime): eszopiclone (3 mg) or matching placebo.
# Sleep, Depression, and Productivity Questionnaires and Clinical Global Impression: The following questionnaires were administered as listed below. • Epworth Sleepiness Scale (ESS): ESS was completed by the subject at Visits 2-10. The ESS is a subjective assessment of the likelihood of falling asleep in various situations. • Insomnia Severity Index (ISI): ISI was completed by the subject at Visits 3, 5, 7, 9 and 10. The ISI is a subjective assessment of sleep quality, restedness/refreshness upon arising, daytime fatigue, attention/concentration and relationship and mood disturbances. • Work Limitations Questionnaire (WLQ): WLQ was completed by the subject at Visits 3, 5, 7, 9, and 10. The WLQ is a validated self-report instrument for measuring the degree to which chronic health problems interfere with ability to perform job roles, addressing the content of the job through a demand-level methodology. • Hamilton Depression-17: HAM-D-17 was administered via IVRS at screening and rated by a trained clinician at Visits 3, 7, 9, and 10. • SF-36: SF-36 was completed by the subject at Visits 3, 7, 9 and 10. The SF-36 represents multiple operational definitions of health, including function and dysfunction, distress and well-being, objective reports and subjective ratings, and both favorable and unfavorable self-evaluations of general health status. • Clinical Global Impression (CGI): CGI was completed by the investigator at Visits 3-10 The CGI is the investigator's subjective assessment of improvement in the subject's depressive symptoms. The response on the CGI at Visit 7 (Week 4 of double-blind treatment) was used by the investigator to assess the need for increasing the dose of fluoxetine to 40 mg daily (in the morning). […] Study Conduct
# Visit 7 occurred 7 (±2) days after Visit 6. […] Double-blind dosing (at bedtime) continued nightly through Visit 9. • 1. Collected and reviewed the MEC. Recorded all changes in concurrent medications, including OTC and health and dietary supplements, and AEs that may have occurred between Visit 6 and Visit 7. • 2. […] Subjects completed the ESS, 1SI, WLQ, and SF-36 questionnaires prior to performing any other study related procedures. The questionnaires were reviewed for completeness by study staff. Any items left blank were returned to the subject for completion. • 4. A trained clinician administered the Hamilton-D-17 to assess depression symptoms. • 5. The investigator completed the Clinical Global Impression. […] If an increased dose of fluoxetine was required, the investigator dispensed the double-blind blister pack containing the 40 mg dose of fluoxetine. • 6. Dispensed the appropriate Visit 7 double-blind blister pack. […] Note: only one Visit 7 blister card was dispensed. • 7. Obtained vital signs (seated) and weight. • 8. Obtained blood and urine samples for clinical laboratory assessments including urinalysis, urine drug and alcohol screen, and a serum pregnancy tests on all women. • 9. Reviewed use of IVRS and the schedule for calling. Subjects call the IVRS the morning following this visit and on the morning of Visit 8 (prior to the visit). • 10. Issued MEC and instruct the subject on its use. • 11. Scheduled Visit 8 in 14 (±2) days. Visit 8 (Double-Blind Treatment Week 6)
compound,measurement,setting,value
"CN1CCN(C(=O)OC2c3nccnc3C(=O)N2c2ccc(Cl)cn2)CC1 (single isomer, unassigned; (+)) [Eszopiclone, (+) 6-(5-chloro-2-pyridinyl)-6,7-dihydro-7-oxo-5H-pyrrolo[3,4b]pyrazin-5-yl 4-methylpiperazine-1-carboxylate]",unpleasant taste compared to placebo,[1]; 3 mg QHS + fluoxetine QAM,more common
same,drop-outs due to AEs versus placebo,[1]; 3 mg nightly + fluoxetine,comparable
same,tolerability of co-administration with fluoxetine,"[1]; 3 mg nightly + fluoxetine, MDD and insomnia",well-tolerated
same,"Subject Disposition: Discontinued, AE",[2],17 (6.3) n (%)
same,"Subject Disposition: Discontinued, Treatment for Insomnia Failure",[2],2 (0.7) n (%)
same,Subjects on Fluoxetine Hydrochloride 20 mg,[3]; Visit 7 (Week 4),125 (55.8%) n (%)
same,Subjects on Fluoxetine Hydrochloride 40 mg,[3]; Visit 7 (Week 4),99 (44.2%) n (%)
same,Subjects on Fluoxetine Hydrochloride 20 mg,[3]; Visit 8 (Week 6),115 (54.0%) n (%)
same,Subjects on Fluoxetine Hydrochloride 40 mg,[3]; Visit 8 (Week 6),98 (46.0%) n (%)
same,Subjects on Fluoxetine Hydrochloride 20 mg,[3]; Visit 9 (Week 8),103 (52.8%) n (%)
same,Subjects on Fluoxetine Hydrochloride 40 mg,[3]; Visit 9 (Week 8),92 (47.2%) n (%)
same,antidepressant dose escalation to higher dose of fluoxetine,[3]; co-administration with fluoxetine vs placebo,less patients in this study required antidepressant dose escalation
same,Fluoxetine dose increases,"[3]; p<0.05 vs placebo, 3 mg nightly + fluoxetine",44%
